In patent publication US8524302B2, “Natural flavour enhancers and methods for making same” (Pepsico, priority 2009, dated 2013):
“Also recorded” adds a separate entry of the source.

Assays:
sensory panel [1] = assay: Sensory (triangle) tests: kokumi intensity in chicken broth; assay type: in vivo; conditions: for Kokumi intensity (0-5): pH 6.5, scale 0-5 (blank = 2); for Sensory descriptors: pH 6.5; for kokumi effect (in words): Table 10
Experimental: (§1) Unless otherwise indicated, all sensory tests for the samples are determined using triangle tests (Wieser and Belitz, Z. Lebensm. Unters. Forsch., 1975, 159, 65-72) in three different sessions. The sensory panel is trained to evaluate aqueous solutions (2 mL each) of the following reference taste compounds dissolved in bottled water with a pH of 6.0: sucrose (25 mmol/L) for sweet taste; lactic acid (20 mmol/L) for sour taste; NaCl (30 mmol/L) for salty taste; caffeine (1 mmol/L) for bitter taste; and MSG (3 mmol/L) for umami taste, tannic acid (0.05%) for puckering astringency, and quercetin-O-β-D-glucopyranoside (0.01 mmol/L) for a velvety astringent, mouth-drying oral sensation. For the training of viscosity, a gelatin solution (0.5% in water) was used. […] Sensory analyses were performed in a sensory panel room at 19-22° C. in three different sessions using nose clamps.
(§2) For recording the taste profiles, samples are prepared as indicated in the examples below. Flavor profiles of samples are determined in a triangle test in three different sessions. Panelists refrain from eating or drinking for at least 1 hour prior to the session. At the start of the session and before each trial, the subjects rinsed with water and expectorated. The participants receive a set of two blanks and one taste sample. Liquids are swirled around in the mouth briefly and expectorated. […] Each sample with additive is compared to two reference samples without additives. Kokumi intensity is rated according to a scale from 0 to 5 (with 5 being the most intensive). Punch refers to an initial kokumi sensation experienced in the mouth within 0-3 seconds from the time when a food or liquid is put in the mouth, while long-lasting refers to kokumi felt after 10-60 seconds therefrom.
Sensory (triangle) tests are performed by dilution of 3 grams of chicken broth concentrate (Gourmet Bouillon Huhn; Maggi, Singen, Germany) with 100 mL water (Evian®). Additives are added as specified in table below. The pH-value of all samples is adjusted to 6.5 using formic acid (0.1 mol/L) or sodium hydroxide (0.1 mol/L). […] For each sample, kokumi intensity is rated and panelists were asked to describe sensory characteristics.

sensory panel [2] = assay: Sensory (triangle) tests of the compounds in water; assay type: in vivo; conditions: for Sensory descriptors / Intensity (0-5): additive 10 mmol/L; for Sensory descriptors: pH 6.5; for Intensity (0-5): pH 6.5, aroma and taste intensity, scale 0-5; for kokumi sensation (in words): without inducing or glutamate-containing composition
Experimental: as §1, §2
Sensory (triangle) tests are performed by dissolving the listed compounds in water (Evian®). Additives are added as specified in table below. The pH-value of all samples is adjusted to 6.5 using formic acid (0.1 mol/L) or sodium hydroxide (0.1 mol/L). For each sample, aroma and taste intensity is rated and panelists are asked to describe sensory characteristics.

| Compound | Kokumi intensity (0-5) (sensory panel [1]; additive 10 mmol/L) | Sensory descriptors (sensory panel [2]) | Intensity (0-5) (sensory panel [2]) | further results |
| --- | --- | --- | --- | --- |
| CSC[C@H](NC(=O)CC[C@H](N)C(=O)O)C(=O)O [γ-L-glutamyl-S-methyl-L-cysteine] | 3.5 | flavourless | 0 | – |
| CCCSC[C@H](N)C(=O)O [S-propyl-L-cysteine] | 3.5 | – | 2 | Kokumi intensity (0-5) (sensory panel [1]; additive 5 mmol/L): 3.5 |
| S-propyl-L-cysteine-(±)-SO | 2.3 | – | 1 | Kokumi intensity (0-5) (sensory panel [1]; additive 5 mmol/L): 2.3 |
| CCC[S+]([O-])C[C@H](NC(=O)CC[C@H](N)C(=O)O)C(=O)NCC(=O)O (mixture of isomers) [S-propyl-GSH-(±)-SO, S-propyl-γ-L-Glu-L-Cys-(±)-SO-Gly] | 2 | flavourless | 0 | Sensory descriptors (sensory panel [1]; additive 10 mmol/L): same intensity as blank |
| CCSC[C@H](N)C(=O)O [S-ethyl-L-cysteine] | 2.7 | – | 1 | – |
| C/C=C/SC[C@H](NC(=O)CC[C@H](NCC(=O)[C@@H](O)[C@H](O)[C@H](O)CO)C(=O)O)C(=O)O [N-(1-Deoxy-D-fructos-1-yl)-γ-L-glutamyl-(E)-S-1-propenyl-L-cysteine] | – | – | – | Kokumi intensity (0-5) (sensory panel [1]; additive 4 mmol/L): 3.3 |
| C/C=C\[S+]([O-])C[C@H](N)C(=O)O (mixture of isomers) [(Z)-S-1-propenyl-L-cysteine-(±)-SO] | 2.2 | tongue covering, pungent | 1 | – |
| CCCSC[C@H](NC(=O)CC[C@H](N)C(=O)O)C(=O)O [γ-L-glutamyl-S-propyl-L-cysteine] | 2.8 | tongue covering | 0.5 | – |
| CSC[C@H](N)C(=O)O [S-methyl-L-cysteine] | 2.4 | flavourless | 0 | – |
| [Cl-].[Na+] [NaCl, sodium chloride, reference compound] | – | – | – | kokumi effect (in words) (sensory panel [1]): no kokumi effect; Sensory descriptors (sensory panel [1]; additive 30 mmol/L): more salty than the negative control; also recorded: increased salty taste; Kokumi intensity (0-5) (sensory panel [1]; additive 30 mmol/L): 2; kokumi sensation (in words) (sensory panel [2]): no kokumi effect |
| C=CCSC[C@H](NC(=O)CC[C@H](N)C(=O)O)C(=O)O [γ-L-glutamyl-S-allyl-L-cysteine] | 3.7 | – | 1 | – |
| C[S+]([O-])C[C@H](NC(=O)CC[C@H](N)C(=O)O)C(=O)O (mixture of isomers) [γ-L-glutamyl-S-methyl-L-cysteine-(±)-SO] | 2.5 | flavourless | 0 | – |
| CCCSC[C@H](NC(=O)CC[C@H](N)C(=O)O)C(=O)NCC(=O)O [S-propyl-GSH, S-propyl-γ-L-Glu-L-Cys-Gly] | 2.1 | flavourless | 0 | – |
| C/C=C/SC[C@H](N)C(=O)O [(E)-S-1-propenyl-L-cysteine] | 2.5 | fresh onion aroma | 1 | – |
| C=CC[S+]([O-])C[C@H](NC(=O)CC[C@H](N)C(=O)O)C(=O)O (mixture of isomers) [γ-L-glutamyl-S-allyl-L-cysteine-(±)-SO] | 2.5 | burning | 0.5 | – |
| C/C=C/[S+]([O-])C[C@H](NC(=O)CC[C@H](N)C(=O)O)C(=O)O (mixture of isomers) [γ-L-glutamyl-(E)-S-1-propenyl-L-cysteine-(±)-SO] | 2.5 | onion aroma | 0.5 | – |
| C=CC[S@+]([O-])C[C@H](N)C(=O)O (racemic) [S-allyl-L-cysteine-(±)-SO] | 2.4 | – | 1 | – |

| Compound | Kokumi intensity (0-5) (sensory panel [1]; additive 10 mmol/L) | Sensory descriptors (sensory panel [2]) | Intensity (0-5) (sensory panel [2]) | further results |
| --- | --- | --- | --- | --- |
| CCC[S+]([O-])C[C@H](NC(=O)CC[C@H](N)C(=O)O)C(=O)O (mixture of isomers) [γ-L-glutamyl-S-propyl-L-cysteine-(±)-SO] | 2.1 | flavourless | 0 | – |
| C[S+]([O-])C[C@H](NC(=O)CC[C@H](N)C(=O)O)C(=O)NCC(=O)O (mixture of isomers) [S-methyl-GSH-(±)-SO, S-methyl-γ-L-Glu-L-Cys-(±)-SO-Gly] | 2 | flavourless | 0 | Sensory descriptors (sensory panel [1]; additive 10 mmol/L): same intensity as blank |
| N[C@@H](CCC(=O)O)C(=O)[O-].[Na+] [MSG, mono sodium glutamate, reference compound] | 2 | – | – | kokumi effect (in words) (sensory panel [1]): no kokumi effect; Sensory descriptors (sensory panel [1]; additive 10 mmol/L): higher umami intensity; also recorded: increased umami; kokumi sensation (in words) (sensory panel [2]): no kokumi effect |
| C=CCSC[C@H](NC(=O)CC[C@H](N)C(=O)O)C(=O)NCC(=O)O [S-allyl-GSH, S-allyl-γ-L-Glu-L-Cys-Gly] | 3.2 | – | 0 | – |
| CC[S+]([O-])C[C@H](NC(=O)CC[C@H](N)C(=O)O)C(=O)NCC(=O)O (mixture of isomers) [S-ethyl-GSH-(±)-SO, S-ethyl-γ-L-Glu-L-Cys-(±)-SO-Gly] | 2 | flavourless | 0 | Sensory descriptors (sensory panel [1]; additive 10 mmol/L): same intensity as blank |
| C=CC[S+]([O-])C[C@H](NC(=O)CC[C@H](N)C(=O)O)C(=O)NCC(=O)O (mixture of isomers) [S-allyl-GSH-(±)-SO, S-allyl-γ-L-Glu-L-Cys-(±)-SO-Gly] | 2.8 | flavourless | 0 | – |
| N[C@@H](CCC(=O)N[C@@H](CS)C(=O)NCC(=O)O)C(=O)O [GSH, glutathione, reference compound] | 3.5 | – | – | – |
| C/C=C\SC[C@H](N)C(=O)O [(Z)-S-1-propenyl-L-cysteine] | 3.1 | – | 1 | Kokumi intensity (0-5) (sensory panel [1]; additive 5 mmol/L): 3.1 |
| CSC[C@H](NC(=O)CC[C@H](N)C(=O)O)C(=O)NCC(=O)O [S-methyl-glutathione] | 2.8 | – | 0 | – |
| C/C=C/[S+]([O-])C[C@H](N)C(=O)O (mixture of isomers) [(E)-S-1-propenyl-L-cysteine-(±)-SO] | 2.2 | onion aroma | 0 | – |
| CCSC[C@H](NC(=O)CC[C@H](N)C(=O)O)C(=O)O [γ-L-glutamyl-S-ethyl-L-cysteine] | 3.1 | tongue covering | 0.5 | – |
| CC[S+]([O-])C[C@H](NC(=O)CC[C@H](N)C(=O)O)C(=O)O (mixture of isomers) [γ-L-glutamyl-S-ethyl-L-cysteine-(±)-SO] | 2.2 | flavourless | 0 | – |
| S-ethyl-L-cysteine-(±)-SO | 2.1 | – | 1 | – |
| CCSC[C@H](NC(=O)CC[C@H](N)C(=O)O)C(=O)NCC(=O)O [S-ethyl-GSH, S-ethyl-γ-L-Glu-L-Cys-Gly] | 2.3 | – | 0 | – |
| S-methyl-L-cysteine-(±)-SO | 2.1 | flavourless | 0 | – |
| S-allyl-L-cysteine-(+)-SO [Alliin] | 2.5 | – | – | – |
